Earlier results in US12622907B2, “Hair loss therapy” (NIRMANA BIO, INC., priority 2021, dated 2026).
Read-outs that look alike come from different tables or passages of the source.

Legend:
[1] = test system: men with male pattern hair loss; settings: oral 1 mg/day
943 women and 461 men = settings: for subjects who had to stop treatment because of a side effect: low doses used for hair loss

Compound	recipients with no further hair loss compared with baseline (hair counts) ([1]; men with vertex hair loss, after 2 years)	recipients with improvement in hair growth in global photographs ([1]; men with vertex hair loss, at 1 year)	recipients with improvement in hair growth in global photographs ([1]; men with vertex hair loss, at 2 years)	effect on hair growth and hair loss ([1]; significant proportion of men with male pattern hair loss)	frequency of side effects (943 women and 461 men; low doses which are used to treat hair loss)	subjects who had to stop treatment because of a side effect (943 women and 461 men; men (461))	subjects who had to stop treatment because of a side effect (943 women and 461 men; women (943))
CC(C)(C)NC(=O)[C@H]1CC[C@H]2[C@@H]3CC[C@H]4NC(=O)C=C[C@]4(C)[C@H]3CC[C@]12C [finasteride, Finasteride]	83%	48%	66%	promotes hair growth and prevents further hair loss	–	–	–
Nc1cc(N2CCCCC2)nc(N)[n+]1[O-] [minoxidil, Minoxidil]	–	–	–	–	very uncommon	0.5%	2.5%
